Results published in US20260022142A1, “MACROCYCLIC IMMUNOMODULATORS” (Bristol-Myers Squibb Company, priority 2022, published 2026).
Bridge positions count the residues as written; N and C are the ends. Square brackets hold non-standard residues; d marks the D form. Peptide text beside a SMILES is read from it. * marks the point of attachment. Phe(4-CH2CH2COOH) = N[C@@H](Cc1ccc(CCC(=O)O)cc1)C(=O)O; Phe(4-CONH2) = NC(=O)c1ccc(C[C@H](N)C(=O)O)cc1; Phe(4-COOH) = N[C@@H](Cc1ccc(C(=O)O)cc1)C(=O)O; Bip = N[C@@H](Cc1ccc(-c2ccccc2)cc1)C(=O)O; Phe(4-NH2) = Nc1ccc(C[C@H](N)C(=O)O)cc1; Phe(3-F) = N[C@@H](Cc1cccc(F)c1)C(=O)O; Phe(3-Me) = Cc1cccc(C[C@H](N)C(=O)O)c1; Abu(3S-NH2) = C[C@H](N)[C@H](N)C(=O)O; His(τ-Me) = Cn1cnc(C[C@H](N)C(=O)O)c1; His(π-Me) = Cn1cncc1C[C@H](N)C(=O)O; Val(3-OH) = CC(C)(O)[C@H](N)C(=O)O; Val(3-F) = CC(C)(F)[C@H](N)C(=O)O; 3Pal = N[C@@H](Cc1cccnc1)C(=O)O; 4Pal = N[C@@H](Cc1ccncc1)C(=O)O; Cha = N[C@@H](CC1CCCCC1)C(=O)O; Carboxymethyl = O=C(O)C*; Orn = NCCC[C@H](N)C(=O)O; Aun = NCCCCCCCCCCC(=O)O; Dab = NCC[C@H](N)C(=O)O

biological target: T1, PD-1/PD-L1 interaction (PE-labeled human PD-L1-Ig binding to Jurkat cell line over-expressing human PD-1) (Homo sapiens, UniProt Q15116); experiment: Jurkat-PD-1 Cell Binding High-Content Screening Assay (CBA); assay type: cell-based; conditions: Jurkat cell line over-expressing human PD-1; PE-labeled PD-L1-Ig 20 nM final; read-out: Jurkat hPD1-PDL1 IC50
T1 construct: expressed in transfected cells; host or cells: Jurkat
How it was run: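 Binding of fluorescent PD-L1-Ig (phycoerythrin on Ig tag, 20 nM final, 1 h) measured by high-content imaging of fixed, Hoechst-counterstained Jurkat-hPD-1 cells. Compound added 2 h at 37° C beforehand, in DMEM with 10% fetal calf serum.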

T1 sequence (Q15116 25-288): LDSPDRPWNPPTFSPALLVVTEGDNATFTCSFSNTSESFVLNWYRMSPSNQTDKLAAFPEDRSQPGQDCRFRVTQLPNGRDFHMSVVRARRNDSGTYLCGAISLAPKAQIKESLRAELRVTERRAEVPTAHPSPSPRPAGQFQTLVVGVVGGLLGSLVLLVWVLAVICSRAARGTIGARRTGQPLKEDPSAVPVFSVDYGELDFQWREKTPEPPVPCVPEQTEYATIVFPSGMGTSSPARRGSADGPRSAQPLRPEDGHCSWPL

SMILES | IC50 [nM]
Cc1cccc(C[C@@H]2NC(=O)[C@H](CC(=O)O)NC(=O)[C@H](Cc3ccc(C(=O)O)cc3)NC(=O)[C@H](Cc3ccncc3)NC(=O)CSC[C@@H](C(=O)N[C@@H](CCN)C(=O)NCCCCCCCCCCC(=O)O)NC(=O)[C@H]([C@@H](C)O)NC(=O)[C@H](C(C)C)NC(=O)[C@H](CC(C)C)NC(=O)[C@H](CCN)NC(=O)[C@@H](CC(C)C)NC(=O)[C@H](CCCN)NC(=O)[C@H](Cc3ccc(OCC(=O)O)cc3)NC(=O)[C@H](Cc3ccc(-c4ccccc4)cc3)NC(=O)[C@H](Cc3ccc(OCC(=O)O)cc3)NC2=O)c1 [Compound 2143] ({CH2CO}-[4Pal][Phe(4-COOH)]D[Phe(3-Me)]Y(Carboxymethyl)[Bip]Y(Carboxymethyl)[Orn][dL][Dab]LVTC[Dab][Aun]-OH; thioether N-14) | 12.6
Cc1cccc(C[C@@H]2NC(=O)[C@H](CC(=O)O)NC(=O)[C@H](Cc3ccc(CCC(=O)O)cc3)NC(=O)[C@H](CCN)NC(=O)CSC[C@@H](C(=O)N[C@@H](CCN)C(=O)NCCCCCCCCCCC(=O)O)NC(=O)[C@H](CO)NC(=O)[C@H](C(C)(C)O)NC(=O)[C@H](CC3CCCCC3)NC(=O)[C@H](CCN)NC(=O)[C@@H](CC(C)C)NC(=O)[C@H](CCCN)NC(=O)[C@H](Cc3ccc(OCC(=O)O)cc3)NC(=O)[C@H](Cc3ccc(-c4ccccc4)cc3)NC(=O)[C@H](Cc3cccc(F)c3)NC2=O)c1 [Compound 2144] ({CH2CO}-[Dab][Phe(4-CH2CH2COOH)]D[Phe(3-Me)][Phe(3-F)][Bip]Y(Carboxymethyl)[Orn][dL][Dab][Cha][Val(3-OH)]SC[Dab][Aun]-OH; thioether N-14) | 7.3
Cc1cccc(C[C@@H]2NC(=O)[C@H](CC(=O)O)NC(=O)[C@H](Cc3ccc(OCC(=O)O)cc3)NC(=O)[C@H](Cc3ccc(N)cc3)NC(=O)CSC[C@@H](C(=O)N[C@@H](CCN)C(=O)NCCCCCCCCCCC(=O)O)NC(=O)[C@H]([C@@H](C)O)NC(=O)[C@H](C(C)C)NC(=O)[C@H](CC3CCCCC3)NC(=O)[C@H](CCN)NC(=O)[C@@H](CC(C)C)NC(=O)[C@H](CCCN)NC(=O)[C@H](Cc3ccc(OCC(=O)O)cc3)NC(=O)[C@H](Cc3ccc(-c4ccccc4)cc3)NC(=O)[C@H](Cc3ccc(OCC(=O)O)cc3)NC2=O)c1 [Compound 2147] ({CH2CO}-[Phe(4-NH2)]Y(Carboxymethyl)D[Phe(3-Me)]Y(Carboxymethyl)[Bip]Y(Carboxymethyl)[Orn][dL][Dab][Cha]VTC[Dab][Aun]-OH; thioether N-14) | 17.2
Cc1cccc(C[C@@H]2NC(=O)[C@H](CC(=O)O)NC(=O)[C@H](Cc3ccc(OCC(=O)O)cc3)NC(=O)[C@H](Cc3cccnc3)NC(=O)CSC[C@@H](C(=O)N[C@@H](CCN)C(=O)NCCCCCCCCCCC(=O)O)NC(=O)[C@H](CO)NC(=O)[C@H](C(C)C)NC(=O)[C@H](CC3CCCCC3)NC(=O)[C@H](CCN)NC(=O)[C@@H](CC(C)C)NC(=O)[C@H](CCCN)NC(=O)[C@H](Cc3ccc(OCC(=O)O)cc3)NC(=O)[C@H](Cc3ccc(-c4ccccc4)cc3)NC(=O)[C@H](C(C)(C)O)NC2=O)c1 [Compound 2149] ({CH2CO}-[3Pal]Y(Carboxymethyl)D[Phe(3-Me)][Val(3-OH)][Bip]Y(Carboxymethyl)[Orn][dL][Dab][Cha]VSC[Dab][Aun]-OH; thioether N-14) | 55.1
Cc1cccc(C[C@@H]2NC(=O)[C@H](CC(=O)O)NC(=O)[C@H](Cc3ccc(OCC(=O)O)cc3)NC(=O)[C@H](Cc3cn(C)cn3)NC(=O)CSC[C@@H](C(=O)N[C@@H](CCN)C(=O)NCCCCCCCCCCC(=O)O)NC(=O)[C@H](CO)NC(=O)[C@H](C(C)C)NC(=O)[C@H](CC3CCCCC3)NC(=O)[C@H](CCN)NC(=O)[C@@H](CC(C)C)NC(=O)[C@H](CCCN)NC(=O)[C@H](Cc3ccc(OCC(=O)O)cc3)NC(=O)[C@H](Cc3ccc(-c4ccccc4)cc3)NC(=O)[C@H](C(C)(C)O)NC2=O)c1 [Compound 2150] ({CH2CO}-[His(τ-Me)]Y(Carboxymethyl)D[Phe(3-Me)][Val(3-OH)][Bip]Y(Carboxymethyl)[Orn][dL][Dab][Cha]VSC[Dab][Aun]-OH; thioether N-14) | 565

Further lines, results first:

IC50 [nM] | SMILES
9.1 | Cc1cccc(C[C@@H]2NC(=O)[C@H](CC(=O)O)NC(=O)[C@H](Cc3ccc(OCC(=O)O)cc3)NC(=O)[C@H](Cc3ccncc3)NC(=O)CSC[C@@H](C(=O)N[C@@H](CCN)C(=O)NCCCCCCCCCCC(=O)O)NC(=O)[C@H]([C@H](C)N)NC(=O)[C@H](C(C)(C)O)NC(=O)[C@H](CC3CCCCC3)NC(=O)[C@H](CCN)NC(=O)[C@@H](CC(C)C)NC(=O)[C@H](CCCN)NC(=O)[C@H](Cc3ccc(OCC(=O)O)cc3)NC(=O)[C@H](Cc3ccc(-c4ccccc4)cc3)NC(=O)[C@H](Cc3ccc(OCC(=O)O)cc3)NC2=O)c1 [Compound 2142] ({CH2CO}-[4Pal]Y(Carboxymethyl)D[Phe(3-Me)]Y(Carboxymethyl)[Bip]Y(Carboxymethyl)[Orn][dL][Dab][Cha][Val(3-OH)][Abu(3S-NH2)]C[Dab][Aun]-OH; thioether N-14)
2.1 | Cc1cccc(C[C@@H]2NC(=O)[C@H](CC(=O)O)NC(=O)[C@H](Cc3ccc(OCC(=O)O)cc3)NC(=O)[C@H](CCCNC(=N)N)NC(=O)CSC[C@@H](C(=O)N[C@@H](CCN)C(=O)NCCCCCCCCCCC(=O)O)NC(=O)[C@H](CCC(N)=O)NC(=O)[C@H](C(C)(C)F)NC(=O)[C@H](CC3CCCCC3)NC(=O)[C@H](CCN)NC(=O)[C@@H](CC(C)C)NC(=O)[C@H](CCCN)NC(=O)[C@H](Cc3ccc(OCC(=O)O)cc3)NC(=O)[C@H](Cc3ccc(-c4ccccc4)cc3)NC(=O)[C@H](Cc3ccc(OCC(=O)O)cc3)NC2=O)c1 [Compound 2145] ({CH2CO}-RY(Carboxymethyl)D[Phe(3-Me)]Y(Carboxymethyl)[Bip]Y(Carboxymethyl)[Orn][dL][Dab][Cha][Val(3-F)]QC[Dab][Aun]-OH; thioether N-14)
25.4 | Cc1cccc(C[C@@H]2NC(=O)[C@H](CC(=O)O)NC(=O)[C@H](Cc3ccc(OCC(=O)O)cc3)NC(=O)[C@H](Cc3cncn3C)NC(=O)CSC[C@@H](C(=O)N[C@@H](CCN)C(=O)NCCCCCCCCCCC(=O)O)NC(=O)[C@H]([C@@H](C)O)NC(=O)[C@H](C(C)C)NC(=O)[C@H](CC3CCCCC3)NC(=O)[C@H](CCN)NC(=O)[C@@H](CC(C)C)NC(=O)[C@H](CCCN)NC(=O)[C@H](Cc3ccc(OCC(=O)O)cc3)NC(=O)[C@H](Cc3ccc(-c4ccccc4)cc3)NC(=O)[C@H](Cc3ccc(OCC(=O)O)cc3)NC2=O)c1 [Compound 2148] ({CH2CO}-[His(π-Me)]Y(Carboxymethyl)D[Phe(3-Me)]Y(Carboxymethyl)[Bip]Y(Carboxymethyl)[Orn][dL][Dab][Cha]VTC[Dab][Aun]-OH; thioether N-14)

same assay, conditions: Jurkat hPD1-PDL1 IC50, Jurkat cell line over-expressing human PD-1; PE-labeled PD-L1-Ig 20 nM final

SMILES | IC50 [nM]
Cc1cccc(C[C@@H]2NC(=O)[C@H](CC(=O)O)NC(=O)[C@H](Cc3ccc(OCC(=O)O)cc3)NC(=O)[C@H](Cc3ccc(C(N)=O)cc3)NC(=O)CSC[C@@H](C(=O)N[C@@H](CCN)C(=O)NCCCCCCCCCCC(=O)O)NC(=O)[C@H]([C@@H](C)O)NC(=O)[C@H](C(C)C)NC(=O)[C@H](CC3CCCCC3)NC(=O)[C@H](CCN)NC(=O)[C@@H](CC(C)C)NC(=O)[C@H](CCCN)NC(=O)[C@H](Cc3ccc(OCC(=O)O)cc3)NC(=O)[C@H](Cc3ccc(-c4ccccc4)cc3)NC(=O)[C@H](Cc3ccc(OCC(=O)O)cc3)NC2=O)c1 [Compound 2146] ({CH2CO}-[Phe(4-CONH2)]Y(Carboxymethyl)D[Phe(3-Me)]Y(Carboxymethyl)[Bip]Y(Carboxymethyl)[Orn][dL][Dab][Cha]VTC[Dab][Aun]-OH; thioether N-14) | 13.2
